Source: patent US7723021B2, “Methods for treating lentivirus infections” (The J. David Gladstone Institutes, priority 2003, dated 2010)
“Also recorded” adds a separate entry of the source. Residues, ends and D or L forms follow the SMILES beside them. *: point of attachment. Cbz = O=C(OCc1ccccc1)*

What was measured:
[1] = system: Vif-induced degradation of polyubiquitylated APOBEC3G; test: 293T cells cotransfected with APOBEC3G-HA, His-ubiquitin and Vif, with MG132, anti-HA immunoblot; format: cell-based; settings: MG132 for the final 6 hours of culture
Protocol: To obtain further insight into the mechanism of Vif-induced degradation of APOBEC3G, it was investigated whether APOBEC3G is modified by ubiquitylation. APOBEC3G and His-ubiquitin expression vectors (Treier et al., 1994) were cotransfected into 293T cells in the presence or absence of Vif expression vector. After 48 hours in culture, cellular lysates were prepared. […] Immunoblotting of lysates prepared in the absence of APOBEC3G-HA confirmed that anti-HA antibodies selectively reacted with modified forms of APOBEC3G (FIG. 7C, lane 10). Coexpression of Vif was associated with a complete loss of these polyubiquitylated APOBEC3G species as well as diminished expression of unmodified APOBEC3G (FIG. 7C, lanes 6 and 8). To investigate whether the 26S proteasome mediated Vif-induced degradation of these polyubiquitylated APOBEC3G protein species, parallel experiments were performed in the presence of the proteasome inhibitor, MG132. […] However, it was also observed in multiple experiments that one of the many APOBEC3G degradation products appearing in Vif-expressing cells increased after the addition of MG132 (FIG. 7C, compare lanes 7 and 8). These findings raise the possibility that Vif action may involve multiple pathways including the targeting of select proteolytic fragments of APOBEC3G for degradation by the 26S proteasome.
FIG. 7. HIV-1 Vif induces degradation of APOBEC3G, and polyubiquitylated forms of APOBEC3G form a major target for Vif induced degradation. (A and B) Vif promotes degradation or extensive proteolysis of APOBEC3G as reflected by the loss of both N- and C-terminal immunoreactive epitopes. Graded amounts of expression vector DNA encoding HA-APOBEC3G or APOBEC3G-HA were co-transfected with and without Vif expression vector DNA into 293T cells. Cellular lysates prepared from these cultures were analyzed by immunoblotting with anti-HA antibodies. […] Note that Vif expression induces a loss of anti-HA immunoreactivity regardless of whether the HA epitope is positioned at the N- or C-terminus of APOBEC3G. (C) APOBEC3G is polyubiquitylated and Vif induces degradation of (Ub)n-APOBEC3G apparently by a proteasome-independent mechanism. 293T cells were cotransfected with APOBEC3G-HA and his-ubiquitin expression vectors in the presence or absence of Vif expression vector. 48 hours later, cellular lysates were prepared. As indicated, select cultures were supplemented with the proteasome inhibitor, MG132, for the final 6 hours of culture. Lysates were analyzed by immunoblotting with anti-HA antibodies. […] In addition to the polyubiquitylated forms of APOBEC3G-HA, degradation products of APOBEC3G-HA were apparent both in the presence and absence of Vif expression.

[2] = system: Vif-mediated degradation of APOBEC3G (luc-APOBEC3G); test: Vif/luc-APOBEC3G HeLa cell line luciferase assay; format: cell-based
Text: The following is one non-limiting example of a suitable assay for identifying agents that reduce Vif-induced degradation of APOBEC3G. Mammalian cells (e.g., an immortalized cell line) are stably transfected with an expression vector that includes a coding sequence for a luciferase-APOBEC3G fusion protein, such that the cells synthesize the luciferase-APOBEC3G (luc-APOBEC3G) fusion protein. A substrate for luciferase is provided in the cell medium, such that the substrate enters the cell, and is acted on by the luciferase portion of the luciferase-APOBEC3G to yield a luminescent product. The level of luciferase in the cell is detected using a luminometer, and the level of luc-APOBEC3G is expressed as relative light units. The cells are transfected with an expression vector that includes a coding sequence for Vif to yield a Vif/luc-APOBEC3G cell. Because Vif induces degradation of luc-APOBEC3G, the presence of Vif protein in the Vif/luc-APOBEC3G cell reduces the level of luc-APOBEC3G, compared to the level of luc-APOBEC3G in the absence of Vif. When the Vif/luc-APOBEC3G cell is contacted with a test agent that reduces Vif-induced APOBEC3G degradation, the level of luc-APOBEC3G increases relative to the level of luc-APOBEC3G in the Vif/luc-APOBEC3G cell in the absence of the test agent.
Several cell lines were constructed that could serve as the basis for a high-throughput assay for inhibitors of HIV-1 Vif action. The cell lines produce Vif and an APOBEC3G fusion protein composed of APOBEC3G fused to a heterologous protein that provides a detectable signal. One such cell line was constructed as follows. HeLa cells were co-transfected with both a Vif expression vector and a vector expressing APOBEC3G tagged with renilla-luciferase (luc-APOBEC3G), to generate a Vif/luc-APOBEC3G cell line. […]
The Vif/luc-APOBEC3G cell line was treated with the proteasome inhibitor MG132, an agent capable of blocking Vif-mediated degradation of APOBEC3G, and the cells were subsequently lysed. […] The level of luc-APOBEC3G was expressed as relative light units (RLU). […]

CC(C)C[C@@H](C=O)NC(=O)[C@H](CC(C)C)NC(=O)[C@H](CC(C)C)NC(=O)OCc1ccccc1 [MG132] (Cbz-Leu-Leu-Leu-aldehyde) was tested, and the “Vif-dependent disappearance of polyubiquitylated APOBEC3G” value [1] was “did not block; also recorded: not blocked”, the “accumulation of polyubiquitylated proteins within the cells” value [1] was “increased accumulation” and the “levels of unmodified APOBEC3G in the presence of Vif” value [1] was “did not block the Vif-dependent disappearance of polyubiquitylated APOBEC3G or increase levels of the unmodified protein”. For the same molecule, the “one of the APOBEC3G degradation products in Vif-expressing cells” value [1] was “increased in quantity”, the “Vif-caused reduction in the level of luc-APOBEC3G protein” value ([2]; Vif/luc-APOBEC3G cells) was “reversed” and the “reduction of RLU in the absence of the proteasome inhibitor relative to MG132-treated cells” value ([2]; Vif/luc-APOBEC3G cells) was “approximately 20 fold”. For the same molecule, the “level of luc-APOBEC3G in cell lysate” value ([2]; Vif/luc-APOBEC3G cells treated with MG132) was 203333 RLU.
